In patent US3988453A, “Novel phenothiazines as neuroleptics” (Roussel-UCLAF, priority 1974, dated 1976):
Structures can show the parent of a compound that is named as a salt. Where two headings read alike, the source gives them in different places.

How the values were obtained:
[1] = tested on: histamine hydrochloride lethality; assay: antihistaminic activity (protection against lethal histamine dose); format: in vivo, guinea pigs; settings: guinea pig, oral 10 mg/kg
Procedure: E. antihistaminic Activity
This test was effected on guinea pigs which received orally a single dose of 10 mg/kg of the test product and then a intraveinous injection of 0.8 mg/kg of histamine hydrochloride 1 hour or 24 hours thereafter. This histamine dose is the minimum lethal dose for 100% of the animals within about 3 minutes and after 10 minutes, any surviving animals were considered to be protected. Each product was rated to see if 50% of the animals were alive at this dose and the values of Table IV show at least 50% protected by + and less than 50% protected by 0.

[2] = tested on: vomitting provoked by apomorphine; assay: antagonism against vomitting provoked by apomorphine; format: in vivo, dogs; settings: dog
Procedure: D. antagonism against vomitting provoked by apomorphine
This test was effected on 3 dogs on whom the number of vomits provoked by a single subcutaneous injection of 0.1 mg/kg of apomorphine hydrochloride 8 days before this test. Each dog received subcutaneously an injection of an aqueous suspension of 0.3 mg/kg or 0.8 mg/kg of the product of Example 2 and an injection of 0.1 mg/kg of apomorphine hydrochloride 30 minutes, 7 days, 14 days, 21 days, 28 days, 35 days and 42 days thereafter.

[3] = acute toxicity; settings: mouse, in vivo, Swiss mice, mortality at 72 hours
Procedure: The acute toxicity of the product of Example 2 was determined on groups of 10 mice of the Swiss strain weighing about 20 g receiving increasing doses orally or intraperitoneally of the test product. The mortality was determined 72 hours after the product administration.

[4] = tested on: stereotypes provoked by apomorphine; assay: antagonism to stereotypes provoked by apomorphine; format: in vivo, male rats; settings: rat, oral, read-out: ED50 (DE50), apomorphine sterotypes
Procedure: A. antagonism to stereotypes provoked by apomorphine
This test was conducted on groups of 5 male rats in individual cages with the procedure of Janssen et al [Arzn. Forsch., Vol. 15 (1965), p. 104-117 and Vol. 17 (1967), p. 841-854]. Each rat orally received the test compound and then, at variable times, an intraveinous injection of 1.5 mg of apomorphine hydrochloride in the veins of the penis. The times of injection were 1 hour, 24 hours, 2 days, 3 days or 4 days after the test product administration and the rats were studied during 1 minute after 5,10 and 15 minutes after the injection and the stereotype movements of the jaws spheres were evaluated for their degree of intensity on a scale for 0 to 3 /Boissier et al, Therapie, Vol. 25 (1970), p. 939-949/. The ED50 was determined at the maximum of the effect for the time considered that is to say the dose reducing the symptoms by 50% in the treated animals as compared to control animals and the results are reported in Table I.

[5] = tested on: stereotypes provoked by amphetamine; assay: antagonism to stereotypes provoked by amphetamine; format: in vivo, rats; settings: for % protection: rat
Procedure: C. antagonism to stereotypes provoked by amphetamine
This test with the product of Example 2 was effected on groups of 5 rats with the rats individually held in cages and after the rats received intraperitoneally or subcutaneously an aqueous suspension of the product at a dose of 10 mg/kg, each rat received intraperitoneally at different times a single injection of 8 mg/kg of dexamphetamine sulfate. The second injections were made 1 hour or 1,3 or 7 days after the first injection and the results were determined by the procedure of Halliwel et al [Brit. J. Pharmacol., Vol. 23 (1964), p. 330-350].

[6] = tested on: toxicity provoked by amphetamine; assay: antagonism to toxicity provoked by amphetamine; format: in vivo, male mice; settings: mouse, oral, read-out: ED50 (DE50), amphetaminic toxicity
Procedure: B. antagonism to toxicity provoked by amphetamine
This test was effect on groups of 10 male mice grouped in crystallizers with a 20 cm diameter and a 9 cm height closed with a grilled lid. Each mouse orally received a determined dose of the test product and at different times a single intraperitoneal dose of dexamphetamine sulfate. The injection was effected 1 hour, 24 hours or 2,3,4 or 7 days after the administration of the test compound and the mortality for each group was determined 24 hours after the injection. The ED50, the dose at which the toxicity of dexamphetamine sulphate was reduced by 50%, was determined and the results are reported in Table I.

Structure (SMILES): FC(F)(F)c1ccc2c(c1)N(CCCN1CCC(c3c[nH]c4ccccc34)CC1)c1ccccc1S2 [Example 2, 4-(3'-indolyl)-1-[γ-(2"-trifluoromethyl-10"-phenothiazinyl)-propyl]-piperidine hydrochloride]
- Protection against histamine ([1]; after 1 hour): + (at least 50% protected)
- Protection against histamine ([1]; after 24 hours): 0 (less than 50% protected)
- neuroleptic activity (Table III, in words) ([2]; subcutaneous): important prolonged neuroleptic activity
- % of protection ([2]; subcutaneous 0.3 mg/kg, after 30 min): 24%
- % of protection ([2]; subcutaneous 0.3 mg/kg, after 7 d): 86%
- % of protection ([2]; subcutaneous 0.3 mg/kg, after 14 d): 57%
- % of protection ([2]; subcutaneous 0.3 mg/kg, after 21 d): 29%
- % of protection ([2]; subcutaneous 0.3 mg/kg, after 28 d): 10%
- % of protection ([2]; subcutaneous 0.8 mg/kg, after 30 min): 0%
- % of protection ([2]; subcutaneous 0.8 mg/kg, after 7 d): 100%
- % of protection ([2]; subcutaneous 0.8 mg/kg, after 14 d): 95%
- % of protection ([2]; subcutaneous 0.8 mg/kg, after 21 d): 84%
- % of protection ([2]; subcutaneous 0.8 mg/kg, after 28 d): 79%
- % of protection ([2]; subcutaneous 0.8 mg/kg, after 35 d): 42%
- % of protection ([2]; subcutaneous 0.8 mg/kg, after 42 d): 21%
- LD50 at 72 h ([3]; ip, intraperitoneal): ~300 mg/kg
- LD50 at 72 h ([3]; oral): > 1600 mg/kg
- ED50 ([4]; 48 h, apomorphine 2 d after test product): 18 mg/kg
- ED50 ([4]; 72 h, apomorphine 3 d after test product): 17 mg/kg
- ED50 ([4]; 96 h, apomorphine 4 d after test product): 33 mg/kg
- ED50 ([4]; apomorphine 1 h after test product): > 50 mg/kg
- ED50 ([4]; apomorphine 24 h after test product): < 10 mg/kg
- antagonistic effect against the stereotypes provoked by amphetamine (in words) ([5]; injected intraperitoneally or subcutaneously): important antagonistic effect of prolonged duration
- % protection ([5]; intraperitoneal 10 mg/kg, after 1 hour): 39%
- % protection ([5]; intraperitoneal 10 mg/kg, after 1 day): 77%
- % protection ([5]; intraperitoneal 10 mg/kg, after 3 days): 68%
- % protection ([5]; intraperitoneal 10 mg/kg, after 7 days): 61%
- % protection ([5]; subcutaneous 10 mg/kg, after 1 hour): 17%
- % protection ([5]; subcutaneous 10 mg/kg, after 1 day): 84%
- % protection ([5]; subcutaneous 10 mg/kg, after 3 days): 60%
- % protection ([5]; subcutaneous 10 mg/kg, after 7 days): 14%
- ED50 ([6]; 48 h, dexamphetamine 2 d after test product): < 10 mg/kg
- ED50 ([6]; 72 h, dexamphetamine 3 d after test product): 50 mg/kg
- ED50 ([6]; dexamphetamine 1 h after test product): < 10 mg/kg
- ED50 ([6]; dexamphetamine 24 h after test product): < 10 mg/kg
